≈ marks a conversion by molar mass, not a printed value. Calls of active or inactive are those of the source. The rule behind the calls is not given here.
Legend:
Pseudomonas aeruginosa [1] = assay: Antibacterial activity against Pseudomonas aeruginosa ATCC 15442 assessed as bacterial growth inhibition measured after 18 hrs by CLSI protocol based two-fold serial microdilution method; type: functional, organism-based
Pseudomonas aeruginosa [2] = assay: Antibacterial activity against Pseudomonas aeruginosa ATCC 27853 assessed as bacterial growth inhibition measured after 18 hrs by CLSI protocol based two-fold serial microdilution method; type: functional, organism-based
Escherichia coli [3] = assay: Antibacterial activity against Escherichia coli NCTC 8196 assessed as bacterial growth inhibition measured after 18 hrs by CLSI protocol based two-fold serial microdilution method; type: functional, organism-based
Escherichia coli [4] = assay: Antibacterial activity against Escherichia coli ATCC 25922 assessed as bacterial growth inhibition measured after 18 hrs by CLSI protocol based two-fold serial microdilution method; type: functional, organism-based
[5] = tested on: Staphylococcus epidermidis; assay: Antibacterial activity against methicillin-resistant Staphylococcus epidermidis isolate 574 assessed as bacterial growth inhibition measured after 18 hrs by CLSI protocol based two-fold serial microdilution method; type: functional; details: isolate 574, 18 h
[6] = tested on: Staphylococcus epidermidis; assay: Antibacterial activity against methicillin-resistant Staphylococcus epidermidis isolate 602 assessed as bacterial growth inhibition measured after 18 hrs by CLSI protocol based two-fold serial microdilution method; type: functional; details: isolate 602, 18 h
[7] = tested on: Staphylococcus epidermidis; assay: Antibacterial activity against methicillin-resistant Staphylococcus epidermidis isolate 603 assessed as bacterial growth inhibition measured after 18 hrs by CLSI protocol based two-fold serial microdilution method; type: functional; details: isolate 603, 18 h
[8] = tested on: Staphylococcus epidermidis; assay: Antibacterial activity against methicillin-resistant Staphylococcus epidermidis isolate 609 assessed as bacterial growth inhibition measured after 18 hrs by CLSI protocol based two-fold serial microdilution method; type: functional; details: isolate 609, 18 h
[9] = tested on: Staphylococcus epidermidis; assay: Antibacterial activity against methicillin-resistant Staphylococcus epidermidis isolate 610 assessed as bacterial growth inhibition measured after 18 hrs by CLSI protocol based two-fold serial microdilution method; type: functional; details: isolate 610, 18 h
[10] = tested on: Staphylococcus epidermidis; assay: Antibacterial activity against methicillin-resistant Staphylococcus epidermidis isolate 654 assessed as bacterial growth inhibition measured after 18 hrs by CLSI protocol based two-fold serial microdilution method; type: functional; details: isolate 654, 18 h
[11] = tested on: Staphylococcus epidermidis; assay: Antibacterial activity against methicillin-resistant Staphylococcus epidermidis isolate 660 assessed as bacterial growth inhibition measured after 18 hrs by CLSI protocol based two-fold serial microdilution method; type: functional; details: isolate 660, 18 h
Staphylococcus aureus [12] = assay: Antibacterial activity against methicillin-resistant Staphylococcus aureus isolate 583 assessed as bacterial growth inhibition measured after 18 hrs by CLSI protocol based two-fold serial microdilution method; type: functional; details: isolate 583, 18 h
Staphylococcus aureus [13] = assay: Antibacterial activity against methicillin-resistant Staphylococcus aureus isolate 584 assessed as bacterial growth inhibition measured after 18 hrs by CLSI protocol based two-fold serial microdilution method; type: functional; details: isolate 584, 18 h
Staphylococcus aureus [14] = assay: Antibacterial activity against methicillin-resistant Staphylococcus aureus isolate 612 assessed as bacterial growth inhibition measured after 18 hrs by CLSI protocol based two-fold serial microdilution method; type: functional; details: isolate 612, 18 h
Staphylococcus aureus [15] = assay: Antibacterial activity against methicillin-resistant Staphylococcus aureus isolate 620 assessed as bacterial growth inhibition measured after 18 hrs by CLSI protocol based two-fold serial microdilution method; type: functional; details: isolate 620, 18 h
Staphylococcus aureus [16] = assay: Antibacterial activity against methicillin-resistant Staphylococcus aureus isolate 621 assessed as bacterial growth inhibition measured after 18 hrs by CLSI protocol based two-fold serial microdilution method; type: functional; details: isolate 621, 18 h
Staphylococcus aureus [17] = assay: Antibacterial activity against methicillin-resistant Staphylococcus aureus isolate 750 assessed as bacterial growth inhibition measured after 18 hrs by CLSI protocol based two-fold serial microdilution method; type: functional; details: isolate 750, 18 h
Staphylococcus aureus [18] = assay: Antibacterial activity against methicillin-resistant Staphylococcus aureus isolate 770 assessed as bacterial growth inhibition measured after 18 hrs by CLSI protocol based two-fold serial microdilution method; type: functional; details: isolate 770, 18 h
[19] = tested on: Staphylococcus epidermidis; assay: Inhibition of biofilm formation in Staphylococcus epidermidis ATCC 35984 at 1 to 8 ug/ml measured after 24 hrs by crystal violet staining based assay; type: functional, organism-based
[20] = tested on: Staphylococcus epidermidis; assay: Inhibition of biofilm formation in Staphylococcus epidermidis ATCC 12228 at 1 to 8 ug/ml measured after 24 hrs by crystal violet staining based assay; type: functional, organism-based
[21] = Genotoxicity in rec negative Bacillus subtilis M45 assessed as diameter of inhibition zone at 256 ug measured after 24 hrs by rec-assay; type: toxicity; details: in vivo
[22] = Genotoxicity in rec-positive Bacillus subtilis H17 assessed as diameter of inhibition zone at 256 ug measured after 24 hrs by rec-assay; type: toxicity; details: in vivo

| Structure (SMILES) | Activity (Pseudomonas aeruginosa [1]) | Activity (Pseudomonas aeruginosa [2]) | Activity (Escherichia coli [3]) | Activity (Escherichia coli [4]) | MIC [5] | MIC [6] | MIC [7] | MIC [8] | MIC [9] | MIC [10] | MIC [11] | MIC (Staphylococcus aureus [12]) | MIC (Staphylococcus aureus [13]) | MIC (Staphylococcus aureus [14]) | MIC (Staphylococcus aureus [15]) | MIC (Staphylococcus aureus [16]) | MIC (Staphylococcus aureus [17]) | MIC (Staphylococcus aureus [18]) | diameter of the inhibition zone (DIZ) [21] | diameter of the inhibition zone (DIZ) [22] | also measured |
| --- | --- | --- | --- | --- | --- | --- | --- | --- | --- | --- | --- | --- | --- | --- | --- | --- | --- | --- | --- | --- | --- |
| C#CCN[C@@H]1C=C[C@]2(O[C@H]([C@@H](CC)C(=O)[C@@H](C)[C@@H](O)[C@H](C)[C@@H]3O[C@@H]([C@@H](CC)C(=O)O)CC[C@@H]3C)[C@@H](C)C[C@H]2C)O[C@@]12CC[C@@](C)([C@H]1CC[C@](O)(CC)[C@H](C)O1)O2 | inactive | inactive | inactive | inactive | 1.27 µM (≈ 1 µg/mL) | 1.27 µM (≈ 1 µg/mL) | 1.27 µM (≈ 1 µg/mL) | 1.27 µM (≈ 1 µg/mL) | 2.54 µM (≈ 2 µg/mL) | 81.2 µM (≈ 64 µg/mL) | 40.6 µM (≈ 32 µg/mL) | 81.2 µM (≈ 64 µg/mL) | 81.2 µM (≈ 64 µg/mL) | 1.27 µM (≈ 1 µg/mL) | 2.54 µM (≈ 2 µg/mL) | 1.27 µM (≈ 1 µg/mL) | 1.27 µM (≈ 1 µg/mL) | 2.54 µM (≈ 2 µg/mL) | 34 mm | 30 mm | inhibition [19]: Active; inhibition [20]: Active |
| CC[C@@H](C(=O)[C@@H](C)[C@@H](O)[C@H](C)[C@@H]1O[C@@H]([C@@H](CC)C(=O)OCC(F)(F)F)CC[C@@H]1C)[C@H]1O[C@]2(C=C[C@@H](O)[C@]3(CC[C@@](C)([C@H]4CC[C@](O)(CC)[C@H](C)O4)O3)O2)[C@H](C)C[C@@H]1C | inactive | inactive | inactive | inactive |  |  |  |  |  |  |  |  |  |  |  |  |  |  |  |  |  |
| CC[C@@H](C(=O)[C@@H](C)[C@@H](O)[C@H](C)[C@@H]1O[C@@H]([C@@H](CC)C(=O)NCC(F)(F)F)CC[C@@H]1C)[C@H]1O[C@]2(C=C[C@@H](O)[C@]3(CC[C@@](C)([C@H]4CC[C@](O)(CC)[C@H](C)O4)O3)O2)[C@H](C)C[C@@H]1C | inactive | inactive | inactive | inactive |  |  |  |  |  |  |  |  |  |  |  |  |  |  |  |  |  |
| CC[C@@H](C(=O)[C@@H](C)[C@@H](O)[C@H](C)[C@@H]1O[C@@H]([C@@H](CC)C(=O)NCCc2ccc(F)cc2)CC[C@@H]1C)[C@H]1O[C@]2(C=C[C@@H](O)[C@]3(CC[C@@](C)([C@H]4CC[C@](O)(CC)[C@H](C)O4)O3)O2)[C@H](C)C[C@@H]1C | inactive | inactive | inactive | inactive | 18.4 µM (≈ 16 µg/mL) | 36.7 µM (≈ 32 µg/mL) | 18.4 µM (≈ 16 µg/mL) | 18.4 µM (≈ 16 µg/mL) | 36.7 µM (≈ 32 µg/mL) | 36.7 µM (≈ 32 µg/mL) | 36.7 µM (≈ 32 µg/mL) | 18.4 µM (≈ 16 µg/mL) | 18.4 µM (≈ 16 µg/mL) | 36.7 µM (≈ 32 µg/mL) | 18.4 µM (≈ 16 µg/mL) | 18.4 µM (≈ 16 µg/mL) | 18.4 µM (≈ 16 µg/mL) | 36.7 µM (≈ 32 µg/mL) | 27 mm | 20 mm | inhibition [19]: Active; inhibition [20]: Active |
| CC[C@@H](C(=O)[C@@H](C)[C@@H](O)[C@H](C)[C@@H]1O[C@@H]([C@@H](CC)C(=O)O)CC[C@@H]1C)[C@H]1O[C@]2(C=C[C@@H](O)[C@]3(CC[C@@](C)([C@H]4CC[C@](O)(CC)[C@H](C)O4)O3)O2)[C@H](C)C[C@@H]1C [SALINOMYCIN] | inactive | inactive | inactive | inactive | 1.33 µM (≈ 0.999 µg/mL) | 1.33 µM (≈ 0.999 µg/mL) | 2.66 µM (≈ 2 µg/mL) | 1.33 µM (≈ 0.999 µg/mL) | 1.33 µM (≈ 0.999 µg/mL) | 5.33 µM (≈ 4 µg/mL) | 5.33 µM (≈ 4 µg/mL) | 2.66 µM (≈ 2 µg/mL) | 2.66 µM (≈ 2 µg/mL) | 1.33 µM (≈ 0.999 µg/mL) | 1.33 µM (≈ 0.999 µg/mL) | 2.66 µM (≈ 2 µg/mL) | 1.33 µM (≈ 0.999 µg/mL) | 2.66 µM (≈ 2 µg/mL) | 34 mm | 32 mm |  |
| C#CCNC(=O)[C@H](CC)[C@H]1CC[C@H](C)[C@H]([C@@H](C)[C@H](O)[C@H](C)C(=O)[C@H](CC)[C@H]2O[C@]3(C=CC(=O)[C@]4(CC[C@@](C)([C@H]5CC[C@](O)(CC)[C@H](C)O5)O4)O3)[C@H](C)C[C@@H]2C)O1 | inactive | inactive | inactive | inactive |  |  |  |  |  |  |  |  |  |  |  |  |  |  |  |  |  |
| CC[C@@H](C(=O)[C@@H](C)[C@@H](O)[C@H](C)[C@@H]1O[C@@H]([C@@H](CC)C(=O)NCCc2ccc(F)cc2)CC[C@@H]1C)[C@H]1O[C@]2(C=CC(=O)[C@]3(CC[C@@](C)([C@H]4CC[C@](O)(CC)[C@H](C)O4)O3)O2)[C@H](C)C[C@@H]1C | inactive | inactive | inactive | inactive |  |  |  |  |  |  |  |  |  |  |  |  |  |  |  |  |  |
| CC[C@@H](C(=O)[C@@H](C)[C@@H](O)[C@H](C)[C@@H]1O[C@@H]([C@@H](CC)C(=O)O)CC[C@@H]1C)[C@H]1O[C@]2(C=CC(=O)[C@]3(CC[C@@](C)([C@H]4CC[C@](O)(CC)[C@H](C)O4)O3)O2)[C@H](C)C[C@@H]1C | inactive | inactive | inactive | inactive | 1.34 µM (≈ 1 µg/mL) | 2.67 µM (≈ 2 µg/mL) | 2.67 µM (≈ 2 µg/mL) | 2.67 µM (≈ 2 µg/mL) | 2.67 µM (≈ 2 µg/mL) | 5.34 µM (≈ 4 µg/mL) | 5.34 µM (≈ 4 µg/mL) | 2.67 µM (≈ 2 µg/mL) | 2.67 µM (≈ 2 µg/mL) | 2.67 µM (≈ 2 µg/mL) | 2.67 µM (≈ 2 µg/mL) | 2.67 µM (≈ 2 µg/mL) | 2.67 µM (≈ 2 µg/mL) | 2.67 µM (≈ 2 µg/mL) | 34 mm | 32 mm | inhibition [19]: Active; inhibition [20]: Active |

— ChEMBL document CHEMBL4627327, “Antibacterial activity of singly and doubly modified salinomycin derivatives” (Bioorg Med Chem Lett, 2020)
